Test results published in ChEMBL document CHEMBL2331210, “New 2-benzylsulfanyl-nicotinic acid based 1,3,4-oxadiazoles: their synthesis and biological evaluation” (2013).
≈ marks a conversion by molar mass, not a printed value.

Tests used:
SK-MEL-2 = assay: cells; details: Homo sapiens, SK-MEL-2, read-out: Activity
Description: Antitumor activity against human SK-MEL-2 cells assessed as cell growth at 0.1 uM

[1] = Antitumor activity against human HCC2998 cells assessed as cell growth at 0.1 uM; type: functional; details: HCC 2998, read-out: Activity
NCI-H460 = assay: Antitumor activity against human NCI-H460 cells assessed as cell growth at 0.1 uM; type: functional; details: read-out: Activity
Pseudomonas aeruginosa = assay: Antimicrobial activity against Pseudomonas aeruginosa MTCC 2488 assessed as growth inhibition measured after overnight incubation by broth dilution method; type: functional
A498 = assay: Antitumor activity against human A498 cells assessed as cell growth at 0.1 uM; type: functional; details: read-out: Activity
Aspergillus niger = assay: Antimicrobial activity against Aspergillus niger MTCC 282 assessed as growth inhibition measured after overnight incubation by broth dilution method; type: functional
UO-31 = assay: Antitumor activity against human UO31 cells assessed as cell growth at 0.1 uM; type: functional; details: read-out: Activity
NCI/ADR-RES = assay: Antitumor activity against human NCI/ADR-RES cells assessed as cell growth at 0.1 uM; type: functional; details: read-out: Activity
Streptococcus pyogenes = assay: Antimicrobial activity against Streptococcus pyogenes MTCC 442 assessed as growth inhibition measured after overnight incubation by broth dilution method; type: functional
MDA-MB-435 = assay: Antitumor activity against human MDA-MB-435 cells assessed as cell growth at 0.1 uM; type: functional; details: read-out: Activity
CCRF-CEM = assay: Antitumor activity against human CCRF-CEM cells assessed as cell growth at 0.1 uM; type: functional; details: read-out: Activity
SF-295 = assay: Antitumor activity against human SF295 cells assessed as cell growth at 0.1 uM; type: functional; details: read-out: Activity
SNB-75 = assay: Antitumor activity against human SNB75 cells assessed as cell growth at 0.1 uM; type: functional; details: read-out: Activity
MOLT-4 = assay: Antitumor activity against human MOLT4 cells assessed as cell growth at 0.1 uM; type: functional; details: read-out: Activity
LOX IMVI = assay: Antitumor activity against human LOXIMVI cells assessed as cell growth at 0.1 uM; type: functional; details: read-out: Activity
SR = assay: Antitumor activity against human SR cells assessed as cell growth at 0.1 uM; type: functional; details: read-out: Activity
SK-MEL-5 = assay: Antitumor activity against human SK-MEL-5 cells assessed as cell growth at 0.1 uM; type: functional; details: read-out: Activity
SNB-19 = assay: Antitumor activity against human SNB19 cells assessed as cell growth at 0.1 uM; type: functional; details: read-out: Activity
HCT-15 = assay: Antitumor activity against human HCT15 cells assessed as cell growth at 0.1 uM; type: functional; details: read-out: Activity
SF-268 = assay: Antitumor activity against human SF268 cells assessed as cell growth at 0.1 uM; type: functional; details: read-out: Activity
[2] = Antitumor activity against human Hs 578T cells assessed as cell growth at 0.1 uM; type: functional; details: read-out: Activity
OVCAR-8 = assay: Antitumor activity against human OVCAR8 cells assessed as cell growth at 0.1 uM; type: functional; details: read-out: Activity
SW-620 = assay: Antitumor activity against human SW620 cells assessed as cell growth at 0.1 uM; type: functional; details: read-out: Activity
PC-3 = assay: Antitumor activity against human PC3 cells assessed as cell growth at 0.1 uM; type: functional; details: read-out: Activity
DU-145 = assay: Antitumor activity against human DU145 cells assessed as cell growth at 0.1 uM; type: functional; details: read-out: Activity
T47D = assay: Antitumor activity against human T47D cells assessed as cell growth at 0.1 uM; type: functional; details: read-out: Activity
MDA-MB-231 = assay: Antitumor activity against human MDA-MB-231/ATCC cells assessed as cell growth at 0.1 uM; type: functional; details: read-out: Activity
SF-539 = assay: Antitumor activity against human SF539 cells assessed as cell growth at 0.1 uM; type: functional; details: read-out: Activity
RPMI-8226 = assay: Antitumor activity against human RPMI8226 cells assessed as cell growth at 0.1 uM; type: functional; details: read-out: Activity
MDA-MB-468 = assay: Antitumor activity against human MDA-MB-468 cells assessed as cell growth at 0.1 uM; type: functional; details: read-out: Activity
UACC-257 = assay: Antitumor activity against human UACC257 cells assessed as cell growth at 0.1 uM; type: functional; details: read-out: Activity
Staphylococcus aureus = assay: Antimicrobial activity against Staphylococcus aureus MTCC 96 assessed as growth inhibition measured after overnight incubation by broth dilution method; type: functional

In the case of Cc1cnc(NC(=O)CSc2nnc(-c3cccnc3SCc3ccccc3)o2)s1, the growth at 0.1 µM (SK-MEL-2) is reported as 94%, the growth at 0.1 µM [1] is reported as 89.5% and the growth at 0.1 µM (NCI-H460) is reported as 81.1%. For the same compound, the MIC (Pseudomonas aeruginosa) was 62.5 µg/mL (≈ 137 µM), the growth at 0.1 µM (A498) was 73.7% and the MIC (Aspergillus niger) was 1000 µg/mL (≈ 2190 µM). The growth at 0.1 µM (UO-31) was 22.2%, the growth at 0.1 µM (NCI/ADR-RES) was 74% and the MIC (Streptococcus pyogenes) was 62.5 µg/mL (≈ 137 µM). The growth at 0.1 µM (MDA-MB-435) was 96.5%, the growth at 0.1 µM (CCRF-CEM) was 37.8% and the growth at 0.1 µM (SF-295) was 90.1%. For the same compound, the growth at 0.1 µM (SNB-75) was 70.6%, the growth at 0.1 µM (MOLT-4) was 41.8% and the growth at 0.1 µM (LOX IMVI) was 73.1%. It also gave a growth at 0.1 µM (SR) of 67.9%, a growth at 0.1 µM (SK-MEL-5) of 78% and a growth at 0.1 µM (SNB-19) of 65.3%. For the same compound, the growth at 0.1 µM (HCT-15) was 77.3%, the growth at 0.1 µM (SF-268) was 59.1% and the growth at 0.1 µM [2] was 86.2%. The growth at 0.1 µM (OVCAR-8) was 70.3%, the growth at 0.1 µM (SW-620) was 90% and the growth at 0.1 µM (PC-3) was 46.4%. The growth at 0.1 µM (DU-145) was 58%, the growth at 0.1 µM (T47D) was 37.5% and the growth at 0.1 µM (MDA-MB-231) was 11%. For the same compound, the growth at 0.1 µM (SF-539) was 85.5%, the growth at 0.1 µM (RPMI-8226) was 63.9% and the growth at 0.1 µM (MDA-MB-468) was 57.5%. For the same compound, the growth at 0.1 µM (UACC-257) was 94.9% and the MIC (Staphylococcus aureus) was 125 µg/mL (≈ 274 µM).
